Measurements reported in ChEMBL document CHEMBL1287790, “Design, synthesis and SAR of thienopyridines as potent CHK1 inhibitors” (Bioorg Med Chem Lett, 2010).

Target: T1, Serine/threonine-protein kinase Chk1 (Homo sapiens, UniProt O14757)
T1 sequence (O14757 whole entry): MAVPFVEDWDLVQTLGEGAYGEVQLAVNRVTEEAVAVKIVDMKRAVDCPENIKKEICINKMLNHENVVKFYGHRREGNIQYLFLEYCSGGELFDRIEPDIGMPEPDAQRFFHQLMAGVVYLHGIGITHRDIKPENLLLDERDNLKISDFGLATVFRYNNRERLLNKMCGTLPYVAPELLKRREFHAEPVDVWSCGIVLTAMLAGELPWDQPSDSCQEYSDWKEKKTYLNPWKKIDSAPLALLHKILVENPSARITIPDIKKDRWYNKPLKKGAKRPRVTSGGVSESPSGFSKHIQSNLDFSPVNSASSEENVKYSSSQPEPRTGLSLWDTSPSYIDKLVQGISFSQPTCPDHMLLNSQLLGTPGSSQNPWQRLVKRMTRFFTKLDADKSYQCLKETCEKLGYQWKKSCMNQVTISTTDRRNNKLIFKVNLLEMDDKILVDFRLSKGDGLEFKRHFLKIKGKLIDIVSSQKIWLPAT
Assay: Inhibition of His-tagged CHK1 after 2 hrs by liquid scintillation counting

| IC50 | SMILES |
| --- | --- |
| 5 nM | NC(=O)c1cnc(N[C@H]2CCCNC2)c2cc(-c3ccc(F)cc3)sc12 |
| 9 nM | NC(=O)c1cnc(N[C@H]2CCCNC2)c2nc(-c3ccc(Cl)cc3)sc12 |
| 34 nM | NC(=O)c1cnc(N[C@H]2CCCNC2)c2cc(-c3cnc4ccccc4c3)sc12 |
| 197 nM | NC(=O)c1cnc(NC[C@@H]2CCCN2)c2cc(-c3ccc(Cl)cc3)sc12 |
| 4 nM | NC(=O)c1cnc(N[C@H]2CCCNC2)c2cc(-c3ccccc3)sc12 |
| 5 nM | NC(=O)c1cnc(N[C@H]2CCCNC2)c2cc(-c3ccc(C(F)(F)F)cc3)sc12 |
| 7 nM | N#Cc1cccc(-c2cc3c(N[C@H]4CCCNC4)ncc(C(N)=O)c3s2)c1 |
| 56 nM | NC(=O)c1cnc(N[C@H]2CCCNC2)c2cc(Br)sc12 |
| 4 nM | NC(=O)c1cnc(N[C@H]2CCCNC2)c2cc(-c3cccc(Cl)c3)sc12 |
| 21 nM | NC(=O)c1cnc(N[C@H]2CCCNC2)c2cc(-c3ccccc3Cl)sc12 |
| 5 nM | NC(=O)c1cnc(N[C@H]2CCCNC2)c2cc(-c3cc(F)cc(F)c3)sc12 |
| 4 nM | NC(=O)c1cnc(N[C@H]2CCCNC2)c2cc(-c3ccc(Oc4ccccc4)cc3)sc12 |
| 707 nM | NC(=O)c1cnc(NC2CNC2)c2cc(-c3ccc(Cl)cc3)sc12 |
| 2 nM | CC(=O)Nc1cccc(-c2cc3c(N[C@H]4CCCNC4)ncc(C(N)=O)c3s2)c1 |
| 211 nM | NC(=O)c1cnc(N[C@@H]2CCCNC2)c2cc(-c3ccc(Cl)cc3)sc12 |
| 2 nM | NC(=O)Nc1sc(-c2ccc(Cl)cc2)cc1C(=O)NC1CCCCC1 |
| 67 nM | NC(=O)c1cnc(N[C@H]2CCCNC2)c2cc(C#Cc3cccnc3)sc12 |
| 937 nM | NC(=O)c1cnc(NC[C@@H]2CSCN2)c2cc(-c3ccc(Cl)cc3)sc12 |
| 292 nM | NC(=O)c1cnc(NCC2CCCCN2)c2cc(-c3ccc(Cl)cc3)sc12 (centres undefined) |
| 60 nM | NC(=O)c1cnc(N[C@H]2CCCNC2)c2cc(-c3ncccn3)sc12 |
| 717 nM | NC(=O)c1cnc(N[C@H]2CCCNC2)c2ccsc12 |
| 9 nM | NC(=O)c1cnc(N[C@H]2CCCNC2)c2cc(-c3ccc(Cl)c(F)c3)sc12 |
| 60 nM | NC(=O)c1cnc(N[C@H]2CCCNC2)c2cc(-c3ccc4[nH]ccc4c3)sc12 |
| 4 nM | NC(=O)c1cnc(N[C@H]2CCCNC2)c2cc(-c3ccc(F)c(Cl)c3)sc12 |
| 3 nM | NC(=O)c1cnc(N[C@H]2CCCNC2)c2cc(-c3cccc(N4CCCC4)c3)sc12 |
| 3 nM | NC(=O)c1cnc(N[C@H]2CCCNC2)c2cc(-c3cccc(CO)c3)sc12 |
| 1 nM | CN(C)C(=O)c1ccc(-c2cc3c(N[C@H]4CCCNC4)ncc(C(N)=O)c3s2)cc1 |

| IC50 | SMILES |
| --- | --- |
| 19 nM | COc1ccccc1-c1cc2c(N[C@H]3CCCNC3)ncc(C(N)=O)c2s1 |
| 5 nM | NC(=O)c1cnc(N[C@H]2CCCNC2)c2cc(-c3ccc4ncccc4c3)sc12 |
| 2 nM | NC(=O)c1cnc(N[C@H]2CCCNC2)c2cc(-c3cccc(N)c3)sc12 |
| 9 nM | NC(=O)c1cnc(N[C@H]2CCCNC2)c2cc(-c3ccc(F)cc3F)sc12 |
| 4 nM | NC(=O)c1cnc(N[C@H]2CCCNC2)c2cc(-c3ccc4sccc4c3)sc12 |
| 8 nM | Cn1ccc2cc(-c3cc4c(N[C@H]5CCCNC5)ncc(C(N)=O)c4s3)ccc21 |
| 2 nM | NC(=O)c1cnc(N[C@H]2CCCNC2)c2cc(-c3ccc(F)c(F)c3)sc12 |
| 5 nM | NC(=O)c1cnc(N[C@H]2CCCNC2)c2cc(-c3cccc4[nH]ccc34)sc12 |
| 16 nM | NC(=O)c1cnc(N[C@H]2CCCNC2)c2cc(-c3ccc4cc[nH]c4c3)sc12 |
| 24 nM | COc1ccc(F)cc1-c1cc2c(N[C@H]3CCCNC3)ncc(C(N)=O)c2s1 |
| 2 nM | NC(=O)c1cnc(N[C@H]2CCCNC2)c2cc(-c3cc4ccccc4o3)sc12 |
| 4580 nM | NC(=O)c1cnc(N[C@H]2CCCNC2)c2sc(-c3ccc(Cl)cc3)cc12 |
| 3 nM | NC(=O)c1cnc(N[C@H]2CCCNC2)c2cc(-c3ccncc3)sc12 |
| 20 nM | CN(C)S(=O)(=O)c1cccc(-c2cc3c(N[C@H]4CCCNC4)ncc(C(N)=O)c3s2)c1 |
| 9 nM | NC(=O)c1cnc(N[C@H]2CCCNC2)c2cc(-c3ccc(OC(F)(F)F)cc3)sc12 |
| 1 nM | NC(=O)c1ccc(-c2cc3c(N[C@H]4CCCNC4)ncc(C(N)=O)c3s2)cc1 |
| 148 nM | NC(=O)c1cnc(N2CCC[C@@H](N)C2)c2cc(-c3ccc(Cl)cc3)sc12 |
| 746 nM | NC(=O)Nc1sc(-c2ccc(Cl)cc2)cc1C(=O)N1CCCC[C@H](N)C1 |
| 3 nM | COc1ccc(-c2cc3c(N[C@H]4CCCNC4)ncc(C(N)=O)c3s2)cc1 |
| 16 nM | CN(C)S(=O)(=O)c1ccc(-c2cc3c(N[C@H]4CCCNC4)ncc(C(N)=O)c3s2)cc1 |
| 3 nM | NC(=O)c1cnc(N[C@H]2CCCCNC2)c2cc(-c3ccc(Cl)cc3)sc12 |
| 14 nM | NC(=O)c1cnc(N[C@H]2CCNC2)c2cc(-c3ccc(Cl)cc3)sc12 |
| 27100 nM | NC(=O)c1cnc(N[C@@H]2CCCC[C@H]2N)c2cc(-c3ccc(Cl)cc3)sc12 |
| 3 nM | COc1ccc(-c2cc3c(N[C@H]4CCCNC4)ncc(C(N)=O)c3s2)cn1 |
| 7 nM | CNCCNc1ncc(C(N)=O)c2sc(-c3ccc(Cl)cc3)cc12 |
| 2 nM | CS(=O)(=O)c1ccc(-c2cc3c(N[C@H]4CCCNC4)ncc(C(N)=O)c3s2)cc1 |
| 5 nM | NC(=O)c1cnc(N[C@H]2CCCNC2)c2cc(-c3cccnc3)sc12 |
